Experimental findings from PubChem BioAssay AID256 (DTP/NCI, 2004) are described below.

The structures appear in SMILES notation. Several values for one entry are separate records, joined by “and”; a condition that tells them apart may be missing. Identical values can stand only once. Inconclusive results and toxic doses are left out.

The test system of the assay is CD2F1 mice, L1210 leukemia ip, survival T/C. As to the kind of experiment: NCI In Vivo Anticancer Drug Screen. Data for tumor model L1210 Leukemia (intraperitoneal) in CD2F1 (CDF1) mice. The conditions noted are these: higher = longer survival. The procedure, abridged: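 Compound-dosed mice with transplantable tumor versus matched vehicle controls; endpoint ratio T/C reported.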

[1] abbreviates: endpoint: mean survival time, dose: 100.0 mg/kg/injection, schedule: Q01DX009 (ip), vehicle: saline with Tween-80.
Where [2] appears, read: endpoint: mean survival time, dose: 200.0 mg/kg/injection, schedule: Q01DX009 (ip), vehicle: saline with Tween-80.
Setting [3] is: endpoint: mean survival time, dose: 400.0 mg/kg/injection, schedule: Q01DX009 (ip), vehicle: saline with Tween-80.
Where [4] appears, read: endpoint: mean survival time, dose: 100.0 mg/kg/injection, schedule: Q01DX001 (ip), vehicle: saline.
Setting [5] is: endpoint: mean survival time, dose: 200.0 mg/kg/injection, schedule: Q01DX001 (ip), vehicle: saline.
The mark [6] stands for this setting: endpoint: mean survival time, dose: 400.0 mg/kg/injection, schedule: Q01DX001 (ip), vehicle: saline.
Where [7] appears, read: endpoint: mean survival time, dose: 100.0 mg/kg/injection, schedule: Q04DX003 (ip), vehicle: saline with Tween-80.
Where [8] appears, read: endpoint: mean survival time, dose: 200.0 mg/kg/injection, schedule: Q04DX003 (ip), vehicle: saline with Tween-80.
Where [9] appears, read: endpoint: mean survival time, dose: 400.0 mg/kg/injection, schedule: Q04DX003 (ip), vehicle: saline with Tween-80.

On to `Cc1cn(C2CC3[O][Sn]([c]4ccccc4)([c]4ccccc4)[O]CC3O2)c(=O)[nH]c1=O` (stereo unspecified), for which the T/C reads like this: (endpoint: mean survival time, dose: 0.75 mg/kg/injection, schedule: Q01DX005 (ip), vehicle: other) 90 % of control; (endpoint: mean survival time, dose: 0.78 mg/kg/injection, schedule: Q01DX005 (ip), vehicle: other) 96 % of control and 100 % of control; (endpoint: mean survival time, dose: 1.5 mg/kg/injection, schedule: Q01DX005 (ip), vehicle: other) 90 % of control; (endpoint: mean survival time, dose: 1.5 mg/kg/injection, schedule: Q01DX005 (ip), vehicle: saline) 89 % of control; (endpoint: mean survival time, dose: 3.0 mg/kg/injection, schedule: Q01DX005 (ip), vehicle: other) 95 % of control; (endpoint: mean survival time, dose: 3.0 mg/kg/injection, schedule: Q01DX005 (ip), vehicle: saline) 89 % of control. Further, the T/C is, setting by setting: (endpoint: mean survival time, dose: 6.0 mg/kg/injection, schedule: Q01DX005 (ip), vehicle: saline) 97 % of control; (endpoint: mean survival time, dose: 6.25 mg/kg/injection, schedule: Q01DX005 (ip), vehicle: other) 203 % of control and 102 % of control and 105 % of control; (endpoint: mean survival time, dose: 6.25 mg/kg/injection, schedule: Q01DX009 (ip), vehicle: saline) 109 % of control; (endpoint: mean survival time, dose: 12.0 mg/kg/injection, schedule: Q01DX005 (ip), vehicle: other) 100 % of control; (endpoint: mean survival time, dose: 12.0 mg/kg/injection, schedule: Q01DX005 (ip), vehicle: saline) 104 % of control; (endpoint: mean survival time, dose: 12.5 mg/kg/injection, schedule: Q01DX009 (ip), vehicle: saline) 107 % of control. Moreover, the T/C (endpoint: mean survival time, dose: 24.0 mg/kg/injection, schedule: Q01DX005 (ip), vehicle: other) was 104 % of control; the T/C (endpoint: mean survival time, dose: 24.0 mg/kg/injection, schedule: Q01DX005 (ip), vehicle: saline) was 103 % of control; the T/C (endpoint: mean survival time, dose: 25.0 mg/kg/injection, schedule: Q01DX009 (ip), vehicle: saline) is 113 % of control; the T/C (endpoint: mean survival time, dose: 50.0 mg/kg/injection, schedule: Q01DX009 (ip), vehicle: saline) is 110 % of control; the T/C (endpoint: mean survival time, dose: 100.0 mg/kg/injection, schedule: Q01DX009 (ip), vehicle: saline) is 103 % of control; the T/C (endpoint: mean survival time, dose: 200.0 mg/kg/injection, schedule: Q01DX009 (ip), vehicle: saline) was 115 % of control.

Turning to `c1ccc(Sc2cccc3c(-c4ccccc4)c4cccc5c4c(c23)C[S+]5c2ccccc2)cc1` (stereo unspecified), the T/C reads like this: (endpoint: mean survival time, dose: 3.13 mg/kg/injection, schedule: Q04DX003 (ip), vehicle: saline with Tween-80) 96 % of control; (endpoint: mean survival time, dose: 6.25 mg/kg/injection, schedule: Q04DX003 (ip), vehicle: saline with Tween-80) 96 % of control; (endpoint: mean survival time, dose: 12.5 mg/kg/injection, schedule: Q04DX003 (ip), vehicle: saline with Tween-80) 93 % of control.

`CN(N=O)C(=O)NCC1CCC(CNC(=O)N(C)N=O)CC1` (stereo unspecified): the T/C was 96 % of control (endpoint: mean survival time, dose: 100.0 mg/kg/injection, schedule: Q01DX001 (ip), vehicle: carboxymethylcellulose (CMC)); 88 % of control and 98 % of control (endpoint: mean survival time, dose: 200.0 mg/kg/injection, schedule: Q01DX001 (ip), vehicle: carboxymethylcellulose (CMC)); 98 % of control and 93 % of control (endpoint: mean survival time, dose: 300.0 mg/kg/injection, schedule: Q01DX001 (ip), vehicle: carboxymethylcellulose (CMC)); 101 % of control and 108 % of control (endpoint: mean survival time, dose: 400.0 mg/kg/injection, schedule: Q01DX001 (ip), vehicle: carboxymethylcellulose (CMC)); 106 % of control and 107 % of control (endpoint: mean survival time, dose: 500.0 mg/kg/injection, schedule: Q01DX001 (ip), vehicle: carboxymethylcellulose (CMC)); 104 % of control (endpoint: mean survival time, dose: 600.0 mg/kg/injection, schedule: Q01DX001 (ip), vehicle: carboxymethylcellulose (CMC)). The T/C is, setting by setting: (endpoint: mean survival time, dose: 800.0 mg/kg/injection, schedule: Q01DX001 (ip), vehicle: carboxymethylcellulose (CMC)) 111 % of control; (endpoint: mean survival time, dose: 1000.0 mg/kg/injection, schedule: Q01DX001 (ip), vehicle: carboxymethylcellulose (CMC)) 112 % of control.

Consider `CC(=O)Oc1cc(Cl)c(Cl)cc1Cl`, for which the T/C is 108 % of control (endpoint: mean survival time, dose: 100.0 mg/kg/injection, schedule: Q01DX001 (ip), vehicle: saline with Tween-80); 97 % of control (endpoint: mean survival time, dose: 200.0 mg/kg/injection, schedule: Q01DX001 (ip), vehicle: saline with Tween-80); 94 % of control (endpoint: mean survival time, dose: 400.0 mg/kg/injection, schedule: Q01DX001 (ip), vehicle: saline with Tween-80).

As to `Nc1nc(CCCCc2ccccc2)c(N=Nc2ccc(Cl)cc2)c(=O)[nH]1`, the T/C runs as follows: under setting [1], 90 % of control; under setting [2], 90 % of control; under setting [3], 87 % of control.

Regarding `CCOC(=O)C(CCCl)C(=O)OCC`, the T/C is 104 % of control under setting [4], 104 % of control under setting [5] and 101 % of control under setting [6].

With `CS(=O)(=O)C(Br)(Br)S(C)(=O)=O`, the T/C (endpoint: mean survival time, dose: 4.7 mg/kg/injection, schedule: Q01DX001 (ip), vehicle: saline with Tween-80) was 103 % of control and the T/C (endpoint: mean survival time, dose: 9.4 mg/kg/injection, schedule: Q01DX001 (ip), vehicle: saline with Tween-80) was 100 % of control.

For the compound `CCCCn1cnc2c(SSc3ncnc4c3ncn4CCCC)ncnc21`, the T/C under setting [7] was 116 % of control and 106 % of control; the T/C under setting [8] is 113 % of control; the T/C (endpoint: mean survival time, dose: 264.0 mg/kg/injection, schedule: Q04DX003 (ip), vehicle: saline with Tween-80) was 97 % of control; the T/C (endpoint: mean survival time, dose: 300.0 mg/kg/injection, schedule: Q04DX003 (ip), vehicle: saline with Tween-80) was 120 % of control; the T/C under setting [9] was 122 % of control and 111 % of control; the T/C (endpoint: mean survival time, dose: 600.0 mg/kg/injection, schedule: Q04DX003 (ip), vehicle: saline with Tween-80) is 97 % of control.

Turning to `CCCCCCCCCCCCCCCCOc1ccccc1/C=N/O`, the T/C by setting is: (endpoint: mean survival time, dose: 100.0 mg/kg/injection, schedule: Q01DX009 (ip), vehicle: Klucel (hydroxypropylcellulose) (HPC)) 87 % of control; (endpoint: mean survival time, dose: 200.0 mg/kg/injection, schedule: Q01DX009 (ip), vehicle: Klucel (hydroxypropylcellulose) (HPC)) 89 % of control.

Consider `CCOC(=O)c1ccc(NN=NCCF)cc1`, for which the T/C runs as follows: (endpoint: median survival time, dose: 3.12 mg/kg/injection, schedule: Q01DX009 (ip), vehicle: distilled water + Tween-80) 114 % of control and 96 % of control; (endpoint: median survival time, dose: 3.13 mg/kg/injection, schedule: Q01DX009 (ip), vehicle: distilled water + Tween-80) 104 % of control; (endpoint: median survival time, dose: 6.25 mg/kg/injection, schedule: Q01DX009 (ip), vehicle: distilled water + Tween-80) 122 % of control and 98 % of control (2×); (endpoint: median survival time, dose: 12.5 mg/kg/injection, schedule: Q01DX009 (ip), vehicle: distilled water + Tween-80) 92 % of control and 96 % of control; (endpoint: median survival time, dose: 50.0 mg/kg/injection, schedule: Q01DX009 (ip), vehicle: distilled water + Tween-80) 94 % of control.

On to `Cc1cc(=S)n(C)c2ccccc12`, for which the T/C is 94 % of control under setting [1]; 93 % of control under setting [7]; 93 % of control under setting [2]; 96 % of control under setting [8]; 98 % of control under setting [3]; 88 % of control under setting [9].

Consider `Cc1nc2c(c[n+]1C)CN1C=Nc3c(ncn3C3OC(CO)C(O)C3O)C1=N2` (stereo unspecified), for which the T/C was 98 % of control (endpoint: median survival time, dose: 12.5 mg/kg/injection, schedule: Q01DX005 (ip), vehicle: saline); 100 % of control (endpoint: median survival time, dose: 25.0 mg/kg/injection, schedule: Q01DX005 (ip), vehicle: saline); 100 % of control (endpoint: median survival time, dose: 50.0 mg/kg/injection, schedule: Q01DX005 (ip), vehicle: saline); 100 % of control (endpoint: median survival time, dose: 100.0 mg/kg/injection, schedule: Q01DX005 (ip), vehicle: saline); 100 % of control (endpoint: median survival time, dose: 200.0 mg/kg/injection, schedule: Q01DX005 (ip), vehicle: saline).

As for `Cc1cc(C)cc(NCCC#N)c1`, the T/C was 98 % of control (endpoint: mean survival time, dose: 100.0 mg/kg/injection, schedule: Q01DX009 (ip), vehicle: other); 106 % of control (endpoint: mean survival time, dose: 100.0 mg/kg/injection, schedule: Q04DX003 (ip), vehicle: other); 98 % of control (endpoint: mean survival time, dose: 200.0 mg/kg/injection, schedule: Q01DX009 (ip), vehicle: other); 100 % of control (endpoint: mean survival time, dose: 200.0 mg/kg/injection, schedule: Q04DX003 (ip), vehicle: other); 98 % of control (endpoint: mean survival time, dose: 400.0 mg/kg/injection, schedule: Q01DX009 (ip), vehicle: other); 98 % of control (endpoint: mean survival time, dose: 400.0 mg/kg/injection, schedule: Q04DX003 (ip), vehicle: other).

On to `O=C(Nc1ccc(Cl)cc1)Nc1ccccc1F`, for which the T/C runs as follows: under setting [1], 97 % of control; under setting [2], 103 % of control; under setting [3], 105 % of control.

For `O=c1[nH]c(=O)n(C2CCOC2)cc1Br` (stereo unspecified), the T/C was 103 % of control under setting [4], 100 % of control under setting [5] and 103 % of control under setting [6].
